The values below come from ChEMBL document CHEMBL4513139, “CO-ADD screening of University of Strathclyde (UK) compounds”.

In brackets after ≈: the same amount, converted by molar mass. Several values for one entry are separate records, joined by “and”; a condition that tells them apart may be missing. Identical values can stand only once. Bounds are passed on as bounds.

One experiment deals with Escherichia coli. Put plainly: microbe, parasite or virus in culture. The following applies: ATCC 25922, 18 h, ASSAY_TEST Inhibition of Bacterial Growth, detection method Absorption (OD600), MEDIA CAMHB, plate type 384well, NBS, CORNING #3640.
The subject of a further experiment is HEK293. Kind of experiment: cells. The experiment is classed as functional, Homo sapiens, ATCC CRL1573. The following applies: ASSAY_TEST Inhibition of Cell Viability, detection method Resazurin, Fluorescence (ex560/em590), MEDIA DMEM with 10% FBS, plate type 384well, TC, CORNING #3712, time 18 hr.
The test system of experiment [1] is Candida albicans. Put plainly: microbe, parasite or virus in culture. The following applies: ATCC 90028, ASSAY_TEST Inhibition of Fungal Growth, detection method Absorption (OD530), plate type 384well, NBS, CORNING #3640.
Description: (§1) Antifungal activity against Candida albicans ATCC 90028 (CO-ADD:FG_001); MIC in YNB media using NBS plates, by OD630
Experiment [2] concerns Staphylococcus aureus. Put plainly: microbe, parasite or virus in culture. The following applies: ATCC 43300, 18 h, ASSAY_TEST Inhibition of Bacterial Growth, detection method Absorption (OD600), MEDIA CAMHB, plate type 384well, NBS, CORNING #3640.
Description: (§2) Antibacterial activity against Staphylococcus aureus MRSA ATCC 43300 (CO-ADD:GP_020); MIC in CAMBH media, using NBS plates, by OD(600)
The next experiment relates to Klebsiella pneumoniae. Put plainly: microbe, parasite or virus in culture. The following applies: ATCC 700603, 18 h, ASSAY_TEST Inhibition of Bacterial Growth, detection method Absorption (OD600), MEDIA CAMHB, plate type 384well, NBS, CORNING #3640.
Another experiment concerns Pseudomonas aeruginosa. Put plainly: microbe, parasite or virus in culture. The following applies: ATCC 27853, 18 h, ASSAY_TEST Inhibition of Bacterial Growth, detection method Absorption (OD600), MEDIA CAMHB, plate type 384well, NBS, CORNING #3640.
The subject of a further experiment is Acinetobacter baumannii. Kind of experiment: microbe, parasite or virus in culture. The following applies: ATCC 19606, 18 h, ASSAY_TEST Inhibition of Bacterial Growth, detection method Absorption (OD600), MEDIA CAMHB, plate type 384well, NBS, CORNING #3640.
For experiment [3], the system named is Staphylococcus aureus. The following applies: ASSAY_TEST Inhibition of Bacterial Growth, detection method Absorption (OD600), MEDIA CAMHB, plate type 384well, NBS, CORNING #3640, time 18 hr.
Description: as §2
For experiment [4], the system named is Candida albicans. The following applies: ASSAY_TEST Inhibition of Fungal Growth; detection method Absorption (OD530); plate type 384well; NBS; CORNING #3640.
Description: as §1
Where [5] appears, read: Homo sapiens, ATCC CRL1573, HEK293, read-out: CC50.

Description for Acinetobacter baumannii: Antibacterial activity against Acinetobacter baumannii ATCC 19606 (CO-ADD:GN_034); MIC in CAMBH media using NBS plates, by OD600
Description for Cryptococcus neoformans: Antifungal activity against Cryptococcus neoformans H99 ATCC 208821 (CO-ADD:FG_002); MIC in YNB media using NBS plates, by Resazurin OD(600-570)
Description for Escherichia coli: Antibacterial activity against Escherichia coli ATCC 25922 (CO-ADD:GN_001); MIC in CAMBH media using NBS plates, by OD(600)
Description for Klebsiella pneumoniae: Antibacterial activity against Klebsiella pneumoniae MDR ATCC 70063 (CO-ADD:GN_003); MIC in CAMBH media using NBS plates, by OD(600)
Description for Pseudomonas aeruginosa: Antibacterial activity against Pseudomonas aeruginosa ATCC 27853 (CO-ADD:GN_042); MIC in CAMBH media using NBS plates, by OD(600)

Take `COCCOC1CCN(CCNC(=O)c2cc(NC(=O)c3cc(NC(=O)c4ccc(/C=C/c5ccc6nonc6c5)cc4)cn3C)cn2C)CC1.O=S(=O)(O)O`: the MIC in the experiment with Escherichia coli, against Candida albicans [1], with Staphylococcus aureus [2], in the experiment with Cryptococcus neoformans, in the experiment with Klebsiella pneumoniae and against Pseudomonas aeruginosa was over 32 mg/L throughout. Besides, in the experiment with Acinetobacter baumannii, the MIC was over 32 mg/L. In the experiment with HEK293 (setting [5]), the CC50 – broadly, the concentration giving 50% cytotoxicity – turned out to be 3.84 mg/L.

With `CC(C)CCc1sc(NC(=O)c2cc(NC(=O)c3cc(NC(=N)c4ccccc4)cn3C)cn2C)nc1C(=O)NCCCN(C)C.O=C(O)C(F)(F)F.O=C(O)C(F)(F)F`, the MIC is over 32 mg/L in the experiment with Escherichia coli; over 32 mg/L in the experiment on Candida albicans [1]; over 32 mg/L in the experiment on Staphylococcus aureus [2]; 4 mg/L with Cryptococcus neoformans; over 32 mg/L with Klebsiella pneumoniae; over 32 mg/L in the experiment with Pseudomonas aeruginosa. In addition, in the experiment on Acinetobacter baumannii, the MIC was over 32 mg/L. Moreover, the CC50 in the experiment with HEK293 (setting [5]) was over 32 mg/L.

Consider `COCCOC1CCN(CCNC(=O)c2cc(NC(=O)c3cc(NC(=O)c4ccc(/C=C/c5cnc6ccccc6c5)cc4)cn3C)cn2C)CC1`, for which the MIC with Escherichia coli is over 32 mg/L; with Candida albicans [1], over 32 mg/L; against Staphylococcus aureus [2], 0.5 mg/L (≈ 0.71 µM); in the experiment with Cryptococcus neoformans, over 32 mg/L; in the experiment with Klebsiella pneumoniae it was over 32 mg/L; in the experiment on Pseudomonas aeruginosa it was over 32 mg/L. Further, in the experiment on Acinetobacter baumannii, the MIC is over 32 mg/L. Further, in the experiment on HEK293 (setting [5]), the 50% cytotoxic concentration (CC50) was determined as 1.96 mg/L (≈ 2.78 µM).

Consider `COc1cccc(/C=C/c2ccc(C(=O)Nc3cc(C(=O)Nc4cc(C(=O)NCCC(=N)N)n(C)c4)n(C)c3)cc2)c1.O=C(O)C(F)(F)F`, for which the MIC was 4 mg/L with Staphylococcus aureus [3]; over 32 mg/L in the experiment with Escherichia coli; 16 mg/L and 32 mg/L against Candida albicans [4]; over 32 mg/L against Candida albicans [1]; 8 mg/L in the experiment with Staphylococcus aureus [2]; over 32 mg/L against Klebsiella pneumoniae. Further, the MIC in the experiment on Pseudomonas aeruginosa and in the experiment on Acinetobacter baumannii was over 32 mg/L throughout. Besides, the CC50 in the experiment with HEK293 is 10.1 mg/L and 10.7 mg/L; with HEK293 (setting [5]), 15.8 mg/L.

As to `COc1ccc(/C=C/c2ccc(C(=O)Nc3cc(C(=O)Nc4cc(C(=O)NCCN5CCCCC5)n(CCCc5ccccc5)c4)n(C)c3)cn2)cc1.O=C(O)C(F)(F)F.O=C(O)C(F)(F)F`, the MIC was over 32 mg/L against Escherichia coli; over 32 mg/L against Candida albicans [1]; over 32 mg/L with Staphylococcus aureus [2]; 16 mg/L against Cryptococcus neoformans; over 32 mg/L in the experiment with Klebsiella pneumoniae; over 32 mg/L in the experiment on Pseudomonas aeruginosa. This compound also registered an MIC with Acinetobacter baumannii of over 32 mg/L. For the same compound, the CC50 in the experiment with HEK293 (setting [5]) is over 32 mg/L.

Consider `CC(C)n1cc(NC(=O)c2cc(NC(=O)c3cc4ccccc4oc3=O)cn2C)cc1C(=O)Nc1cc(C(=O)NCCCN(C)C)n(C)c1.O=C(O)C(F)(F)F`, for which the MIC in the experiment with Escherichia coli was over 32 mg/L; against Candida albicans [1], over 32 mg/L; against Staphylococcus aureus [2], over 32 mg/L; in the experiment with Cryptococcus neoformans it was 32 mg/L; in the experiment on Klebsiella pneumoniae, over 32 mg/L; in the experiment with Pseudomonas aeruginosa it was over 32 mg/L. In the experiment with Acinetobacter baumannii, this compound gave an MIC of over 32 mg/L. The CC50 in the experiment with HEK293 (setting [5]) is over 32 mg/L.

Turning to `CC(=O)/C=C/c1ccc(C(=O)Nc2cc(C(=O)Nc3cc(C(=O)NCCN4CCOCC4)n(C)c3)n(C)c2)cc1.O=C(O)C(F)(F)F`, the MIC in the experiment with Escherichia coli, in the experiment on Candida albicans [1], in the experiment on Staphylococcus aureus [2], in the experiment with Cryptococcus neoformans, in the experiment with Klebsiella pneumoniae and in the experiment with Pseudomonas aeruginosa was over 32 mg/L in each case. Moreover, the MIC with Acinetobacter baumannii was over 32 mg/L. Also, in the experiment on HEK293 (setting [5]), the cytotoxic concentration (CC50) was found to be 7.01 mg/L.

For `CN(C)CCNC(=O)c1cc(NC(=O)c2cc(NC(=O)c3ccc(/C=C/c4cnc5ccccc5c4)cc3)cn2C)cn1C.O=C(O)C(F)(F)F.O=C(O)C(F)(F)F`, the MIC in the experiment on Staphylococcus aureus [3] was 1 mg/L; with Escherichia coli it was over 32 mg/L; in the experiment with Candida albicans [4], 32 mg/L and >32 mg/L; in the experiment with Candida albicans [1] it was 32 mg/L; in the experiment on Staphylococcus aureus [2] it was 0.5 mg/L; in the experiment on Cryptococcus neoformans, 16 mg/L. Moreover, the MIC with Klebsiella pneumoniae, with Pseudomonas aeruginosa and with Acinetobacter baumannii was over 32 mg/L throughout. Moreover, the CC50 in the experiment on HEK293 was 4.83 mg/L and 2.72 mg/L and 6.4 mg/L.

With `Cn1cc(NC(=O)c2ccc(/C=C/c3cnc4ccccc4c3)cc2)cc1C(=O)Nc1cc(C(=O)NCCN2CCOCC2)n(CCCc2cn(CCc3ccccc3)nn2)c1.O=C(O)C(F)(F)F`, the MIC in the experiment with Escherichia coli was over 32 mg/L; with Candida albicans [1] it was over 32 mg/L; in the experiment with Staphylococcus aureus [2], over 32 mg/L; in the experiment on Cryptococcus neoformans, 16 mg/L; in the experiment with Klebsiella pneumoniae it was over 32 mg/L; in the experiment on Pseudomonas aeruginosa, over 32 mg/L. Also, in the experiment on Acinetobacter baumannii, the MIC was over 32 mg/L. The cytotoxic concentration (CC50) in the experiment on HEK293 (setting [5]) was over 32 mg/L.
